Source: patent publication US7709497B2, “Pyrazolo[3,4-b]pyridine compound, and its use as a PDE4 inhibitor” (Glaxo Group Limited, priority 2004, dated 2010)

Tests used:
COPD patients = conditions: cilomilast: 15 mg orally twice daily; cited from earlier work
[1] = test system: Dinitrofluorobenzene (DNFB)-induced delayed type hypersensitivity (DTH) response in pigs; experiment: Pig model of atopic dermatitis: DNFB-induced DTH response, skin topical administration; assay type: in vivo
Source text: The pig DTH (delayed type hypersensitivity) model of contact hypersensitivity utilizes the Th2-mediated inflammatory response in pig skin to mimic the pathology of atopic dermatitis in humans. The model measures the potential anti-inflammatory effect of compounds, topically-applied to the skin, on the acute DTH (delayed type hypersensitivity) response in castrated male Yorkshire pigs.
In general in the assay, pigs (domestic Yorkshire pigs, 15-18 kg at time of sensitization, castrated males) are first sensitized by topical application of ca. 10% (w/v) dinitrofluorobenzene (DNFB) dissolved in DMSO:acetone:olive oil (ca. 1:5:3) (ca. 40 mg DNFB, 400 microlitre solution total) to the ears (outer) and groin (inner). The pigs are then challenged 12 days later with ca. 0.6% (w/v) DNFB applied to randomized sites on the shaved back of the pigs (ca. 90 micrograms/site; sites are identified and numbered by grid made with marking pen).
On the day of challenge, the treatments are performed at about 2 hours prior to and about 6 hours after challenge (for DMSO/acetone solutions/suspensions, to maximize exposure to drug), or at about 30 minutes after and about 6 hours after challenge (for topical ointments or creams, representing a more clinically relevant treatment protocol).
One day (about 24 hrs) after challenge, and optionally again at ca. 48 hrs post challenge, test sites are visually evaluated for intensity and extent of erythema by measuring the diameter of the reaction at its widest point and assigning scores of 0 to 4 for each of erythema intensity and erythema extent. Induration (a measure of swelling) is also scored 0 to 4. Scores for erythema intensity, erythema extent and induration are assigned according to the following criteria: Intensity of Erythema: 0=normal, 1=minimal, barely visible, 2=mild, 3=moderate, 4=severe. Extent of Erythema (not raised): 0=no edema, 1=macules of pin head size, 2=lentil sized macules, 3=confluent macules, 4=diffuse over entire site. Induration (palpable): 0=normal, 1=nodules of pin head size, 2=doughy lentil sized nodules, 3=confluent firm nodules, 4=diffuse hard lesion. The summed visual score at ca. 24 hours includes the individual scores for erythema intensity, erythema extent, and induration; so the maximal summed score for each site would be 12. High summed scores can generally indicate a high inflammatory response. Visual scores are subject to some inaccuracy/error.
Differences in the summed score between adjacent control (placebo) and treatment sites on the grids are calculated. This difference value is then used to determine the percent inhibition compared to the summed score for the control (placebo) sites. The more negative the difference value, the greater the calculated inhibition. Percent inhibition of (percent inhibition compared to) the mean summed score can be calculated.
About 24 hours after challenge, treatment sites can optionally also be visually evaluated for lesion area.
The anti-inflammatory effect of the compound of formula (I) (“free base” form), applied topically to the skin, on the acute DTH response in castrated male Yorkshire pigs is compared to that of another PDE4 inhibitor cipamfylline (BRL-61063) and the topical immunomodulator pimecrolimus.
In the above assay, the compound of formula (I) is topically administered: either (A) at ca. 2.5% (w/v) concentration in a solution of ca. 10% DMSO/90% acetone (ca. 50 microliters or ca. 1.5 mg/site) at about 2 hours prior to and about 6 hours after the DNFB challenge; or (B) at ca. 0.5% (w/w) concentration in an ointment containing propylene glycol (PG)*(ca. 25 mg of formulation/site) at about 30 minutes after and about 6 hours after the DNFB challenge. […]

[2] = test system: atopic dermatitis patients; conditions: 0.15% cream vs cream vehicle and hydrocortisone 17-butyrate (0.1%) cream; cited from earlier work

In the case of COc1ccc([C@]2(C#N)CC[C@@H](C(=O)O)CC2)cc1OC1CCCC1 [cilomilast], the “forced expiratory volume in 1s (FEV1) in COPD patients” value (COPD patients) is given as “appears to improve forced expiratory volume in 1s (FEV1)”.
In the case of Nc1nc2c([nH]1)c(=O)n(CC1CC1)c(=O)n2CC1CC1 [cipamfylline, reference compound], the “reduction in summed scores” value ([1]; ca. 0.25% (w/w) in ointment, not statistically significant) is listed as 6-7%, the “reduction in mean summed score” value ([1]; ca. 2.5% (w/v) in DMSO/acetone solution, vs vehicle alone, ca. 24 h after challenge) is listed as “about 8%” and the “efficacy in treatment of atopic dermatitis patients” value [2] is listed as “significantly more effective than vehicle, but significantly less effective than hydrocortisone 17-butyrate (0.1%) cream”.
In the case of CC[C@@H]1/C=C(\C)C[C@H](C)C[C@H](OC)[C@H]2O[C@@](O)(C(=O)C(=O)N3CCCC[C@H]3C(=O)O[C@H](/C(C)=C/[C@@H]3CC[C@H](Cl)[C@H](OC)C3)[C@H](C)[C@@H](O)CC1=O)[C@H](C)C[C@@H]2OC [pimecrolimus, reference compound], the “inhibition of summed scores” value ([1]; 1% (w/w) cream formulation, p<0.05 by ANOVA) is reported as “about 29%”.
